Data reported in patent US9273003B2, “Methods of treating lymphoma and rheumatoid arthritis with cyclopentyl (2S)-cyclohexyl[({6-[3-(hydroxyamino)-3-oxopropyl]pyridin-3-yl}methyl)amino]acetate” (GlaxoSmithKline Intellectual Property Development Limited, priority 2006, dated 2016).
Like-named read-outs stand apart in the source and are kept apart here.

Experiments:
[1] = target: histone deacetylase activity (HeLa nuclear extract); assay: HDAC fluorescent activity assay (Fluor de Lys, Biomol); type: biochemical
Protocol: The ability of compounds to inhibit histone deacetylase activities was measured using the commercially available HDAC fluorescent activity assay from Biomol. In brief, the Fluor de Lys™ substrate, a lysine with an epsilon-amino acetylation, is incubated with the source of histone deacetylase activity (HeLa nuclear extract) in the presence or absence of inhibitor. Deacetylation of the substrate sensitises the substrate to Fluor de Lys™ developer, which generates a fluorophore. Thus, incubation of the substrate with a source of HDAC activity results in an increase in signal that is diminished in the presence of an HDAC inhibitor.
Data are expressed as a percentage of the control, measured in the absence of inhibitor, with background signal being subtracted from all samples, as follows: % activity=[(S^i−B)/(S^o−B)]×100 where S^i is the signal in the presence of substrate, enzyme and inhibitor, S^o is the signal in the presence of substrate, enzyme and the vehicle in which the inhibitor is dissolved, and B is the background signal measured in the absence of enzyme.
(§1) IC50 values were determined by non-linear regression analysis, after fitting the results of eight data points to the equation for sigmoidal dose response with variable slope (% activity against log concentration of Compound), using Graphpad Prism software.
Histone deacetylase activity from crude nuclear extract derived from HeLa cells was used for screening. The preparation, purchased from 4C (Seneffe, Belgium), was prepared from HeLa cells harvested whilst in exponential growth phase. The nuclear extract was prepared according to the methodology described by J. D. Dignam, Nucl. Acid. Res., 1983, 11, 1475-1489, snap frozen in liquid nitrogen and stored at −80° C. The final buffer composition was 20 mM Hepes, 100 mM KCl, 0.2 mM EDTA, 0.5 mM DTT, 0.2 mM PMSF and 20% (v/v) glycerol.

U937 cells = assay: U937 cell inhibition assay (WST-1 cell viability); type: cell-based; details: for IC50: Homo sapiens, U-937
Protocol: (§2) Cancer cell lines (U937 and HUT) growing in log phase were harvested and seeded at 1000-2000 cells/well (100 μl final volume) into 96-well tissue culture plates. Following 24 h of growth cells were treated with Compound. Plates were then re-incubated for a further 72-96 h before a WST-1 cell viability assay was conducted according to the suppliers (Roche Applied Science) instructions.
(§3) Data were expressed as a percentage inhibition of the control, measured in the absence of inhibitor, as follows: % inhibition=100−[(S^i/S^o)×100] where S^i is the signal in the presence of inhibitor and S^o is the signal in the presence of DMSO.
(§4) Dose response curves were generated from 8 concentrations (top final concentration 10 μM, with 3-fold dilutions), using 6 replicates.
(§5) IC50 values were determined by non-linear regression analysis, after fitting the results to the equation for sigmoidal dose response with variable slope (% activity against log concentration of Compound), using Graphpad Prism software.

HeLa cells = assay: HeLa cell inhibition assay (sulphorhodamine B cell viability); type: cell-based; details: Homo sapiens, IC50 allocated to ranges
Protocol: HeLa cells growing in log phase were harvested and seeded at 1000 cells/well (200 μl final volume) into 96-well tissue culture plates. Following 24 h of cell growth cells were treated with compounds (final concentration of 20 μM). Plates were then re-incubated for a further 72 h before a sulphorhodamine B (SRB) cell viability assay was conducted according to the methodology described by Skehan et al, J. Natl. Canc. Inst., 1990, 82, 1107-1112.
Data were expressed as a percentage inhibition of the control, measured in the absence of inhibitor, as follows:— % inhibition=100−[(S^i/S^o)×100] where S^i is the signal in the presence of inhibitor and S^o is the signal in the presence of DMSO.
as §1

HUT78 cells = assay: HUT cell inhibition assay (WST-1 cell viability); type: cell-based; details: Homo sapiens
Protocol: as §2, §3, §4, §5

[2] = IC50 allocated to ranges, read-out: HDAC activity
[3] = U937 cells, IC50 allocated to ranges, read-out: U937 activity
[4] = HUT78 cells, IC50 allocated to ranges, read-out: HUT activity

| Structure (SMILES) | IC50 [1, 2] | IC50 (U937 cells; [3]) | IC50 (HeLa cells) | IC50 (HUT78 cells; [4]) | IC50 ([1]; read-out: Inhibition of HDAC (IC50-nM)) | IC50 (U937 cells; U937 monocytic cell line, read-out: Inhibition of U937 cell proliferation (IC50-nM)) | fold more potent as anti-proliferative agent than belinostat (U937 cells; monocytic cell line U937, versus belinostat) | IC50 (HUT78 cells; HUT78 non-monocytic cell line, read-out: Inhibition of HUT78 cell proliferation (IC50-nM)) |
| --- | --- | --- | --- | --- | --- | --- | --- | --- |
| O=C(/C=C/c1cccc(S(=O)(=O)N[C@H](C(=O)OC2CCCC2)c2ccccc2)c1)NO [Example 1, cyclopentyl (2S)-[({3-[(1E)-3-(hydroxyamino)-3-oxoprop-1-en-1-yl]phenyl}sulfonyl)amino](phenyl)acetate] | 101 to 1000 nM | > 3300 nM | > 3300 nM | > 3300 nM | – | – | – | – |
| O=C(/C=C/c1cccc(S(=O)(=O)N[C@H](C(=O)OC2CCCC2)C2CCCCC2)c1)NO [Example 2, Cyclopentyl (2S)-cyclohexyl[({3-[(1E)-3-(hydroxyamino)-3-oxoprop-1-en-1-yl]phenyl}sulfonyl)amino]acetate] | < 100 nM | 331 to 3300 nM | 331 to 3300 nM | 331 to 3300 nM | – | – | – | – |
| CC(C)C[C@H](NS(=O)(=O)c1cccc(/C=C/C(=O)NO)c1)C(=O)OC1CCCC1 [Example 3, Cyclopentyl N-({3-[(1E)-3-(hydroxyamino)-3-oxoprop-1-en-1-yl]phenyl}sulfonyl)-L-leucinate] | < 100 nM | 331 to 3300 nM | 331 to 3300 nM | 331 to 3300 nM | – | – | – | – |
| CC(C)(C)OC[C@H](NS(=O)(=O)c1cccc(/C=C/C(=O)NO)c1)C(=O)OC1CCCC1 [Example 4, Cyclopentyl O-tert-butyl-N-({3-[(1E)-3-(hydroxyamino)-3-oxoprop-1-en-1-yl]phenyl}sulfonyl)-L-serinate] | < 100 nM | 331 to 3300 nM | 331 to 3300 nM | 331 to 3300 nM | – | – | – | – |
| O=C(/C=C/c1cccc(C(=O)N[C@H](C(=O)OC2CCCC2)C2CCCCC2)c1)NO [Example 5, Cyclopentyl (2S)-cyclohexyl({3-[(1E)-3-(hydroxyamino)-3-oxoprop-1-en-1-yl]benzoyl}amino)acetate] | < 100 nM | 331 to 3300 nM | 331 to 3300 nM | 331 to 3300 nM | – | – | – | – |
| O=C(/C=C/c1cccc(C(=O)N[C@H](C(=O)OC2CCCC2)c2ccccc2)c1)NO [Example 6, Cyclopentyl (2S)-({3-[(1E)-3-(hydroxyamino)-3-oxoprop-1-en-1-yl]benzoyl}amino)(phenyl)acetate] | 101 to 1000 nM | 331 to 3300 nM | > 3300 nM | 331 to 3300 nM | – | – | – | – |
| O=C(/C=C/c1ccc(C(=O)N[C@H](C(=O)OC2CCCC2)C2CCCCC2)cc1)NO [Example 7, Cyclopentyl (2S)-cyclohexyl({4-[(1E)-3-(hydroxyamino)-3-oxoprop-1-en-1-yl]benzoyl}amino)acetate] | 101 to 1000 nM | 331 to 3300 nM | > 3300 nM | 331 to 3300 nM | – | – | – | – |
| CC(C)C[C@H](NC(=O)c1ccc(/C=C/C(=O)NO)cc1)C(=O)OC1CCCC1 [Example 8, Cyclopentyl N-{4-[(1E)-3-(hydroxyamino)-3-oxoprop-1-en-1-yl]benzoyl}-L-leucinate] | 101 to 1000 nM | 331 to 3300 nM | 331 to 3300 nM | 331 to 3300 nM | – | – | – | – |
| O=C(/C=C/c1ccc(OCCCN[C@H](C(=O)OC2CCCC2)C2CCCCC2)cc1)NO [Example 9, Cyclopentyl (2S)-cyclohexyl[(3-{4-[(1E)-3-(hydroxyamino)-3-oxoprop-1-en-1-yl]phenoxy}propyl)amino]acetate] | > 1000 nM | > 3300 nM | > 3300 nM | > 3300 nM | – | – | – | – |
| CC(C)(C)OC[C@H](NCCCOc1ccc(/C=C/C(=O)NO)cc1)C(=O)OC1CCCC1 [Example 10, Cyclopentyl O-tert-butyl-N-(3-{4-[(1E)-3-(hydroxyamino)-3-oxoprop-1-en-1-yl]phenoxy}propyl)-L-serinate] | 101 to 1000 nM | 331 to 3300 nM | 331 to 3300 nM | 331 to 3300 nM | – | – | – | – |
| CC(C)C[C@H](NCCCOc1ccc(/C=C/C(=O)NO)cc1)C(=O)OC1CCCC1 [Example 11, Cyclopentyl N-(3-{4-[(1E)-3-(hydroxyamino)-3-oxoprop-1-en-1-yl]phenoxy}propyl)-L-leucinate] | 101 to 1000 nM | 331 to 3300 nM | > 3300 nM | 331 to 3300 nM | – | – | – | – |
| O=C(/C=C/c1cccc(CN[C@H](C(=O)OC2CCCC2)C2CCCCC2)c1)NO [Example 12, Cyclopentyl (2S)-cyclohexyl({3-[(1E)-3-(hydroxyamino)-3-oxoprop-1-en-1-yl]benzyl}amino)acetate] | 101 to 1000 nM | 331 to 3300 nM | > 3300 nM | 331 to 3300 nM | – | – | – | – |
| O=C(/C=C/c1cccc(CN[C@H](C(=O)OC2CCCC2)c2ccccc2)c1)NO [Example 13, Cyclopentyl (2S)-({3-[(1E)-3-(hydroxyamino)-3-oxoprop-1-en-1-yl]benzyl}amino)(phenyl)acetate] | > 1000 nM | > 3300 nM | > 3300 nM | 331 to 3300 nM | – | – | – | – |
| O=C(/C=C/c1ccc(CN[C@H](C(=O)OC2CCCC2)C2CCCCC2)cc1)NO [Example 14, Cyclopentyl (2S)-cyclohexyl({4-[(1E)-3-(hydroxyamino)-3-oxoprop-1-en-1-yl]benzyl}amino)acetate] | < 100 nM | < 330 nM | 331 to 3300 nM | < 330 nM | 59 nM | 5 nM | 30 fold | 230 nM |
| CC(C)C[C@H](NCc1ccc(/C=C/C(=O)NO)cc1)C(=O)OC1CCCC1 [Example 15, Cyclopentyl N-{4-[(1E)-3-(hydroxyamino)-3-oxoprop-1-en-1-yl]benzyl}-L-leucinate] | < 100 nM | < 330 nM | 331 to 3300 nM | < 330 nM | – | – | – | – |
| COC(=O)[C@H](Cc1c[nH]c2ccccc12)NCc1ccc(/C=C/C(=O)NO)cc1 [Example 29, Methyl N-{4-[(1E)-3-(hydroxyamino)-3-oxoprop-1-en-1-yl]benzyl}-L-tryptophanate] | – | 331 to 3300 nM | 331 to 3300 nM | 331 to 3300 nM | – | – | – | – |
| CC(C)(C)OC[C@H](NCc1ccc(CNCc2cccc(/C=C/C(=O)NO)c2)cc1)C(=O)OC1CCCC1 [Example 74, Cyclopentyl O-tert-butyl-N-{4-[({3-[(1E)-3-(hydroxyamino)-3-oxoprop-1-en-1-yl]benzyl}amino)methyl]benzyl}-L-serinate] | – | < 330 nM | > 3300 nM | 331 to 3300 nM | – | – | – | – |
| CC(C)C[C@H](NC(C)c1ccc(/C=C/C(=O)NO)cc1)C(=O)OC(C)(C)C (stereo partly drawn) [Example 85, tert-Butyl N-(1-{4-[(1E)-3-(hydroxyamino)-3-oxoprop-1-en-1-yl]phenyl}ethyl)-L-leucinate] | < 100 nM | < 330 nM | – | < 330 nM | – | – | – | – |
| CC(C)C[C@H](NC(C)c1ccc(CCC(=O)NO)cc1)C(=O)OC(C)(C)C (stereo partly drawn) [Example 86, tert-Butyl N-(1-{4-[3-(hydroxyamino)-3-oxopropyl]phenyl}ethyl)-L-leucinate] | 101 to 1000 nM | < 330 nM | – | 331 to 3300 nM | – | – | – | – |
| CC(C)C[C@H](NCCc1ccc(/C=C/C(=O)NO)cc1)C(=O)OC(C)(C)C [Example 87, tert-Butyl N-(2-{4-[(1E)-3-(hydroxyamino)-3-oxoprop-1-en-1-yl]phenyl}ethyl)-L-leucinate] | 101 to 1000 nM | 331 to 3300 nM | – | 331 to 3300 nM | – | – | – | – |
| O=C(CCc1ccc(CN2CCNC(C(=O)OC3CCCC3)C2)cc1)NO (stereo not shown) [Example 113, Cyclopentyl 4-{4-[3-(hydroxyamino)-3-oxopropyl]benzyl}piperazine-2-carboxylate] | 101 to 1000 nM | 331 to 3300 nM | – | 331 to 3300 nM | – | – | – | – |
